Results as given in patent EP0049683A2, “Imidazo-rifamycines, process for their preparation, pharmaceutical preparations containing them and their use” (CIBA-GEIGY AG, priority 1980, dated 1982).
≈ marks a conversion by molar mass, not a printed value.

Columns and labels:
Format in all cases: cell-based
[1] = test system: Mycobacterium tuberculosis; experiment: Agar dilution MIC in DST agar (Ericsson and Sherris); conditions: in vitro; for MIC: Mycobacterium tuberculosis, read-out: MIC Myc. tub.
Escherichia coli 2018 = experiment: as above; conditions: for MIC Esch. 2018: in vitro; for MIC: Escherichia coli, 2018, in vitro, read-out: MIC Esch. 2018
Summary of the method: (§1)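 MIC (µg/ml) by agar dilution per Ericsson and Sherris in DST agar; lowest concentration still inhibiting growth of the test organism.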

Escherichia coli 205 = experiment: as above; conditions: for MIC Esch. 205: in vitro; for MIC: Escherichia coli, 205, in vitro, read-out: MIC Esch. 205
Summary of the method: as §1

[2] = test system: Pseudomonas aeruginosa K 799/61; experiment: as above; conditions: for MIC Pseu. 799: in vitro, agar dilution, DST agar; for MIC: Pseudomonas aeruginosa, K799/61, read-out: MIC Pseu. 799
Summary of the method: as §1

[3] = test system: Staphylococcus aureus 2999; experiment: as above; conditions: for MIC Staph. 2999: in vitro; for MIC: Staphylococcus aureus, 2999, in vitro, read-out: MIC Staph. 2999
Summary of the method: as §1

Proteus morganii 2359 = experiment: as above; conditions: for MIC Prot. 2359: in vitro; for MIC: Morganella morganii, 2359, in vitro, read-out: MIC Prot. 2359
Summary of the method: as §1

[4] = test system: Staphylococcus aureus 10B; experiment: as above; conditions: in vitro; for MIC: Staphylococcus aureus, 10B, read-out: MIC Staph. 10B
Summary of the method: as §1

Proteus morganii 1518 = experiment: as above; conditions: for MIC Prot. 1518: in vitro; for MIC: Morganella morganii, 1518, in vitro, read-out: MIC Prot. 1518
Summary of the method: as §1

[5] = test system: Salmonella Typhimurium 277; experiment: as above; conditions: in vitro; for MIC: Salmonella enterica, TYPHIMURIUM, read-out: MIC Salm. 277
Summary of the method: as §1

Staphylococcus aureus = experiment: In vitro antibacterial activity against gram-positive cocci; conditions: at (at or below) the lowest limit of the tested concentration range, 0,005 y/ml
Text: (§2) Die neuen erfindungsgemässen Verbindungen der Formel I zeichnen sich vor allem durch ihre wertvollen pharmakologischen Eigenschaften aus: so besitzen sie gemäss den Resultaten in vitro antibiotische, insbesondere antibakterielle Eigenschaften, wie z.B. einerseits gegen grammpositive Kokken, wie Staphylococcus aureus, (im getesteten Konzentrationsbereich 0,005 bis 128 y/ml),andererseits gegen grammnegative Stäbchenbakterien, wie Enterobacteriaceae, z.B. Escherichia coli, Pseudomonas aeruginosa und Proteus morganii (im getesteten Konzentrationsbereich von 1 bis 64 y/ml), sowie gegen Mycobacterium tuberculosis (im getesteten Konzentrationsbereich von 0,48 bis 1,9 y/ml). […] (Für die Testresultate siehe auch Tabelle -1.)
(§3) Auch die neuen erfindungsgemässen Verbindungen der Formeln V und VI zeichnen sich durch analoge wertvolle pharmakologische Eigenschaften aus, d.h. sie besitzen gemäss den Resultaten in vitro antibiotische, insbesondere antibakterielle Eigenschaften, die sich bezüglich des Anwendungsbereichs sowie der getesteten effektiven Konzentrationen den Verbindungen der Formel I praktisch gleichen. […] (Für die Testresultate siehe auch Tabelle 2.)

[6] = test system: Enterobacteriaceae, z.B. Escherichia coli, Pseudomonas aeruginosa und Proteus morganii; experiment: In vitro antibacterial activity against gram-negative rods; conditions: within the stated concentration range, 1 bis 64 y/ml
Text: as §2, §3

Compound | MIC Myc. tub. [1] [µg/mL] | MIC Esch. 2018 (Escherichia coli 2018) [µg/mL] | MIC Esch. 205 (Escherichia coli 205) [µg/mL] | MIC Pseu. 799 [2] [µg/mL] | MIC Staph. 2999 [3] [µg/mL] | MIC Prot. 2359 (Proteus morganii 2359) [µg/mL] | MIC Staph. 10B [4] [µg/mL] | MIC Prot. 1518 (Proteus morganii 1518) [µg/mL] | MIC Salm. 277 [5] [µg/mL] | MIC [1] [µg/mL] | Hemmwirkung auf Staphylococcus aureus (Staphylococcus aureus) | MIC (Escherichia coli 2018) [µg/mL] | MIC (Escherichia coli 205) [µg/mL] | MIC [2] [µg/mL] | MIC [3] [µg/mL] | MIC (Proteus morganii 2359) [µg/mL] | MIC [4] [µg/mL] | MIC (Proteus morganii 1518) [µg/mL] | MIC [5] [µg/mL] | Hemmung der Enterobacterien [6]
4-(1-Perhydroazocinyl)-imidazolo[4,5-c]rifamycin SV [Verbindung 28] | 0.97 | 4 | 4 | 8 | 0.005 | 2 | 0.005 | 2 | 16 | – | – | – | – | – | – | – | – | – | – | –
COC1C=COC2(C)Oc3c(C)c(O)c4c(O)c(c5nc(N6CCOCC6)[nH]c5c4c3C2=O)NC(=O)C(C)=CC=CC(C)C(O)C(C)C(O)C(C)C(OC(C)=O)C1C (centres unmarked) [Verbindung 2, 4-Morpholino-imidazolo[4,5-c]rifamycin SV] | – | – | – | – | – | – | – | – | – | 1.9 (≈ 2.35 µM) | deutliche Hemmwirkung | 16 (≈ 19.8 µM) | 16 (≈ 19.8 µM) | 8 (≈ 9.91 µM) | 0.005 (≈ 0.0062 µM) | 4 (≈ 4.96 µM) | 0.01 (≈ 0.0124 µM) | 4 (≈ 4.96 µM) | 32 (≈ 39.7 µM) | wirksam hemmen
CCN(CC)CCN(CC)c1nc2c([nH]1)c1c(O)c3c(O)c(C)c4c(c32)C(=O)[C@@](C)(O/C=C/[C@H](OC)[C@@H](C)[C@@H](OC(C)=O)[C@H](C)[C@H](O)[C@H](C)[C@@H](O)[C@@H](C)/C=C/C=C(/C)C(=O)N1)O4 [Verbindung 18, 4-[N-Ethyl-N-(2-diethylaminoethyl)-amino]-imidazolo-[4,5-c]rifamycin SV] | – | – | – | – | – | – | – | – | – | 0.48 (≈ 0.556 µM) | – | 4 (≈ 4.63 µM) | 2 (≈ 2.31 µM) | 8 (≈ 9.26 µM) | 0.005 (≈ 0.00579 µM) | 2 (≈ 2.31 µM) | 0.005 (≈ 0.00579 µM) | 4 (≈ 4.63 µM) | 16 (≈ 18.5 µM) | –
3-(4-Methylpiperazinyl)-methylenamino-Rifamycin S [Verbindung 88] | – | – | – | – | – | – | – | – | – | – | deutliche Hemmwirkung | – | – | – | – | – | – | – | – | wirksam hemmen
3-(4-Phenylpiperazinyl)methylenamino-Rifamycin S [Verbindung 91] | – | – | – | – | – | – | – | – | – | – | deutliche Hemmwirkung | – | – | – | – | – | – | – | – | wirksam hemmen
4-[8-Aza-1,4-dioxaspiro-(4,5)-8-decyl]-imidazolo[4,5-c]-rifamycin SV [Verbindung 25] | 0.97 | 16 | 8 | 16 | 0.005 | 8 | 0.005 | 8 | 16 | – | – | – | – | – | – | – | – | – | – | –
3-Indolinylmethylenamino-Rifamycin S [Verbindung 82] | – | – | – | – | – | – | – | – | – | – | deutliche Hemmwirkung | – | – | – | – | – | – | – | – | wirksam hemmen
CO[C@H]1/C=C/O[C@@]2(C)Oc3c(C)c(O)c4c(O)c(c5nc(N6CCN(Cc7ccccc7)CC6)[nH]c5c4c3C2=O)NC(=O)/C(C)=C\C=C\[C@H](C)[C@H](O)[C@@H](C)[C@@H](O)[C@@H](C)[C@H](OC(C)=O)[C@@H]1C [Verbindung 57, 4-(4-Benzylpiperazinyl)-imidazolo[4,5-c]rifamycin SV] | – | – | – | – | – | – | – | – | – | 0.97 (≈ 1.08 µM) | – | 4 (≈ 4.46 µM) | 8 (≈ 8.93 µM) | 16 (≈ 17.9 µM) | 0.005 (≈ 0.00558 µM) | 4 (≈ 4.46 µM) | 0.005 (≈ 0.00558 µM) | 4 (≈ 4.46 µM) | 16 (≈ 17.9 µM) | –
C=CCCN1CCN(c2nc3c([nH]2)c2c(O)c4c(O)c(C)c5c(c43)C(=O)[C@@](C)(O/C=C/[C@H](OC)[C@@H](C)[C@@H](OC(C)=O)[C@H](C)[C@H](O)[C@H](C)[C@@H](O)[C@@H](C)/C=C/C=C(/C)C(=O)N2)O5)CC1 [Verbindung 45, 4-[4-(3-Butenyl)-piperazinyl]-imidazolo[4,5-c]rifamycin SV] | – | – | – | – | – | – | – | – | – | – | – | 1 (≈ 1.16 µM) | 8 (≈ 9.3 µM) | 32 (≈ 37.2 µM) | 0.005 (≈ 0.00581 µM) | 8 (≈ 9.3 µM) | 0.01 (≈ 0.0116 µM) | 8 (≈ 9.3 µM) | 32 (≈ 37.2 µM) | –
4-(4-Ethoxycarbonylpiperazinyl)-imidazolo[4,5-c]rifamycin SV [Verbindung 67] | – | 16 | 16 | 32 | 0.005 | 16 | 0.005 | 16 | 64 | – | – | – | – | – | – | – | – | – | – | –
3-Thiomorpholinylmethylenamino-Rifamycin S [Verbindung 87] | – | – | – | – | – | – | – | – | – | – | deutliche Hemmwirkung | – | – | – | – | – | – | – | – | wirksam hemmen
CO[C@H]1/C=C/O[C@@]2(C)Oc3c(C)c(O)c4c(O)c(c5nc(N6CCCCCC6)[nH]c5c4c3C2=O)NC(=O)/C(C)=C\C=C\[C@H](C)[C@H](O)[C@@H](C)[C@@H](O)[C@@H](C)[C@H](OC(C)=O)[C@@H]1C [Verbindung 27, 4-(1-Perhydroazepinyl)-imidazolo[4,5-c]rifamycin SV] | – | 8 (≈ 9.77 µM) | 8 (≈ 9.77 µM) | 8 (≈ 9.77 µM) | 0.001 (≈ 0.00122 µM) | 8 (≈ 9.77 µM) | 0.001 (≈ 0.00122 µM) | 2 (≈ 2.44 µM) | 32 (≈ 39.1 µM) | – | – | – | – | – | – | – | – | – | – | –
4-(4-Isobutyl-2,5-dimethyl-piperazinyl)-imidazolo[4,5-c]-rifamycin SV [Verbindung 76] | – | 8 | 32 | 32 | 0.01 | 8 | 0.01 | 8 | 32 | – | – | – | – | – | – | – | – | – | – | –
4-(3-Diethylaminocarbonyl-1-piperidyl)-imidazolo[4,5-c]-rifamycin SV [Verbindung 26] | – | 32 | 16 | 16 | 0.01 | 16 | 0.05 | 16 | 84 | – | – | – | – | – | – | – | – | – | – | –
CO[C@H]1/C=C/O[C@@]2(C)Oc3c(C)c(O)c4c(O)c(c5nc(N6CCN(CC7CC7)CC6)[nH]c5c4c3C2=O)NC(=O)/C(C)=C\C=C\[C@H](C)[C@H](O)[C@@H](C)[C@@H](O)[C@@H](C)[C@H](OC(C)=O)[C@@H]1C [Verbindung 54, 4-(4-Cyclopropylmethylpiperazinyl)-imidazolo[4,5-c]rifamycin SV] | – | – | – | – | – | – | – | – | – | – | – | 8 (≈ 9.3 µM) | 8 (≈ 9.3 µM) | 16 (≈ 18.6 µM) | 0.005 (≈ 0.00581 µM) | 8 (≈ 9.3 µM) | 0.005 (≈ 0.00581 µM) | 8 (≈ 9.3 µM) | 32 (≈ 37.2 µM) | –
COCCN(CCOC)c1nc2c([nH]1)c1c(O)c3c(O)c(C)c4c(c32)C(=O)[C@@](C)(O/C=C/[C@H](OC)[C@@H](C)[C@@H](OC(C)=O)[C@H](C)[C@H](O)[C@H](C)[C@@H](O)[C@@H](C)/C=C/C=C(/C)C(=O)N1)O4 [Verbindung 16, 4-[N-Di-(2-methoxyethyl)-amino]-imidazolo[4,5-c]rifamycin SV] | – | – | – | – | – | – | – | – | – | – | – | 8 (≈ 9.38 µM) | 8 (≈ 9.38 µM) | 8 (≈ 9.38 µM) | 0.01 (≈ 0.0117 µM) | 4 (≈ 4.69 µM) | 0.01 (≈ 0.0117 µM) | 2 (≈ 2.34 µM) | 32 (≈ 37.5 µM) | –
COC1C=COC2(C)Oc3c(C)c(O)c4c(O)c(c5nc(N6CCN(CC7CCCCC7)CC6)[nH]c5c4c3C2=O)NC(=O)C(C)=CC=CC(C)C(O)C(C)C(O)C(C)C(OC(C)=O)C1C (centres unmarked) [Verbindung 5, 4-(4-Cyclohexylmethyl-piperazinyl)-imidazolo[4,5-c]rifamycin SV] | – | – | – | – | – | – | – | – | – | 1.9 (≈ 2.11 µM) | – | 4 (≈ 4.43 µM) | 4 (≈ 4.43 µM) | 16 (≈ 17.7 µM) | 0.005 (≈ 0.00554 µM) | 16 (≈ 17.7 µM) | 0.005 (≈ 0.00554 µM) | 8 (≈ 8.87 µM) | 8 (≈ 8.87 µM) | –
CO[C@H]1/C=C/O[C@@]2(C)Oc3c(C)c(O)c4c(O)c(c5nc(N6CCN(C7CCCC7)CC6)[nH]c5c4c3C2=O)NC(=O)/C(C)=C\C=C\[C@H](C)[C@H](O)[C@@H](C)[C@@H](O)[C@@H](C)[C@H](OC(C)=O)[C@@H]1C [Verbindung 50, 4-(4-Cyclopentylpiperazinyl)-imidazolo[4,5-c]rifamycin SV] | – | – | – | – | – | – | – | – | – | – | – | 8 (≈ 9.15 µM) | 8 (≈ 9.15 µM) | 8 (≈ 9.15 µM) | 0.01 (≈ 0.0114 µM) | 8 (≈ 9.15 µM) | 0.01 (≈ 0.0114 µM) | 8 (≈ 9.15 µM) | 32 (≈ 36.6 µM) | –
